# Data as given in patent US7396837B2, “Antitumoral analogs of lamellarins” (Pharma Mar, S.A.U., priority 2002, dated 2008).
# Where two headings read alike, the source gives them in different places.
# Experiments:
# Format in all cases: cell-based
# [1] = system: SKOV-3; experiment: SRB colorimetric cell growth inhibition assay, SKOV-3; details: Homo sapiens; for GI50: SK-OV-3, SKOV-3, GI=growth inhibition, read-out: GI50 SKOV-3; for LC50 (concentration causing 50% net cell killing) / IC (TGI): SK-OV-3, SKOV-3; for LC50 (concentration causing 50% net cell killing): cell killing (cytotoxic effect), read-out: LC50 SKOV-3; for IC (TGI): total growth inhibition (cytostatic effect), read-out: TGI SKOV-3
# Excerpt: A colorimetric type of assay, using sulforhodamine B (SRB) reaction has been adapted for a quantitative measurement of cell growth and viability (following the technique described by P. A. Skehan, et al., J. Natl. Cancer Inst. 1990, 82, 1107-1112).
# This form of assay employs 96 well cell culture microplates of 9 mm diameter (T. Mosmann et al., J. of Immunological Methods 1983, 65, 55-63; G. T. Faircloth et al., J. of Tissue and Culture Methods 1988, 11, 201-205).
# Most of the cell lines are obtained from American Type Culture Collection (ATCC) derived from different human cancer types.
# The values for mean +/− SD of data from triplicate wells are calculated. Some parameters for cellular responses can be calculated: GI=growth inhibition, TGI=total growth inhibition (cytostatic effect) and LC=cell killing (cytotoxic effect).
# [2] = system: PANC-1; experiment: SRB colorimetric cell growth inhibition assay, PANC-1; details: for CC50: Homo sapiens, PANC-1, PANC-1, cell killing (cytotoxic effect), read-out: LC50 PANC-1; for GI50 / TGI PANC-1: PANC-1; for GI50: GI=growth inhibition, read-out: GI50 PANC-1; for TGI PANC-1: total growth inhibition (cytostatic effect)
# In short: (§1)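 Sulforhodamine B colorimetric readout measured cell growth and viability after continuous compound exposure of human cancer cell lines in 96-well plates. Triplicate wells gave mean ± SD, from which growth inhibition (GI), cytostatic total growth inhibition (TGI) and cytotoxic cell killing (LC) were calculated.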
# [3] = system: SK-MEL-28; experiment: SRB colorimetric cell growth inhibition assay, SK-MEL-28; details: MEL-28; for GI50: GI=growth inhibition, read-out: GI50 MEL-28; for CC50: cell killing (cytotoxic effect), read-out: LC50 MEL-28; for TGI MEL-28: total growth inhibition (cytostatic effect)
# In short: as §1
# [4] = system: LoVo-Dox; experiment: SRB colorimetric cell growth inhibition assay, LoVo-Dox (MDR); details: Homo sapiens, LOVO-DOX; for GI50: GI=growth inhibition, read-out: GI50 LOVO-DOX; for CC50: cell killing (cytotoxic effect), read-out: LC50 LOVO-DOX; for IC (TGI): total growth inhibition (cytostatic effect), read-out: TGI LOVO-DOX
# In short: as §1
# [5] = system: HT-29; experiment: SRB colorimetric cell growth inhibition assay, HT-29; details: for GI50: GI=growth inhibition, read-out: GI50 HT-29; for CC50: cell killing (cytotoxic effect), read-out: LC50 HT-29
# In short: as §1
# [6] = system: SK-BR-3; experiment: SRB colorimetric cell growth inhibition assay, SK-BR-3; details: for CC50: Homo sapiens, SK-BR-3, SK-BR-3, cell killing (cytotoxic effect), read-out: LC50 SK-BR-3; for GI50 / TGI SK-BR-3: SK-BR-3; for GI50: GI=growth inhibition, read-out: GI50 SK-BR-3; for TGI SK-BR-3: total growth inhibition (cytostatic effect)
# In short: as §1
# [7] = system: IGROV; experiment: SRB colorimetric cell growth inhibition assay, IGROV; details: IGROV; for CC50: cell killing (cytotoxic effect), read-out: LC50 IGROV; for IC (TGI): total growth inhibition (cytostatic effect), read-out: TGI IGROV; for GI50: GI=growth inhibition, read-out: GI50 IGROV
# In short: as §1
# [8] = system: LoVo; experiment: SRB colorimetric cell growth inhibition assay, LoVo; details: for GI50: GI=growth inhibition, read-out: GI50 LOVO; for CC50: cell killing (cytotoxic effect), read-out: LC50 LOVO; for IC (TGI): total growth inhibition (cytostatic effect), read-out: TGI LOVO
# In short: as §1
# [9] = system: DU-145; experiment: SRB colorimetric cell growth inhibition assay, DU-145; details: for GI50: GI=growth inhibition, read-out: GI50 DU-145; for CC50: cell killing (cytotoxic effect), read-out: LC50 DU-145
# In short: as §1
# [10] = system: H-MEC-1; experiment: SRB colorimetric cell growth inhibition assay, H-MEC-1; details: Homo sapiens, HMEC-1, H-MEC-1; for GI50: GI=growth inhibition, read-out: GI50 H-MEC-1; for IC (TGI): total growth inhibition (cytostatic effect), read-out: TGI H-MEC-1
# In short: (§2)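 Growth inhibition (GI), total growth inhibition (TGI, cytostatic) and lethal concentration (LC, cytotoxic) come from an SRB-based colorimetric measure of growth and viability. Data are triplicate-well means ± SD.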
# [11] = as above; details: human, H-MEC-1, cell killing (cytotoxic effect), read-out: LC50 H-MEC-1
# In short: as §2
# [12] = system: K-562; experiment: SRB colorimetric cell growth inhibition assay, K-562; details: Homo sapiens, K562, K-562; for GI50: GI=growth inhibition, read-out: GI50 K-562; for CC50: cell killing (cytotoxic effect), read-out: LC50 K-562; for IC (TGI): total growth inhibition (cytostatic effect), read-out: TGI K-562
# In short: as §1
# [13] = system: A-549; experiment: SRB colorimetric cell growth inhibition assay, A-549; details: for GI50: GI=growth inhibition, read-out: GI50 A-549; for CC50: cell killing (cytotoxic effect), read-out: LC50 A-549
# In short: as §1
# [14] = system: IGROV-ET; experiment: SRB colorimetric cell growth inhibition assay, IGROV-ET (ET-743 resistant); details: IGROV-ET; for CC50: cell killing (cytotoxic effect), read-out: LC50 IGROV-ET; for IC (TGI): total growth inhibition (cytostatic effect), read-out: TGI IGROV-ET; for GI50: GI=growth inhibition, read-out: GI50 IGROV-ET
# In short: as §1
# [15] = system: LNCaP; experiment: SRB colorimetric cell growth inhibition assay, LNCaP; details: Homo sapiens, LNCaP, LN-caP; for GI50: GI=growth inhibition, read-out: GI50 LN-caP; for CC50: cell killing (cytotoxic effect), read-out: LC50 LN-caP; for IC (TGI): total growth inhibition (cytostatic effect), read-out: TGI LN-caP
# In short: as §1
structure (smiles),measurement,setting,value
COc1cc2ccn3c(c(-c4ccc(OC(=O)[C@@H](N)Cc5ccccc5)c(OC)c4)c4c5cc(OC)c(OC(=O)[C@@H](N)Cc6ccccc6)cc5oc(=O)c43)c2cc1OC [Compound 18],GI50,[1],1220 nM
same,LC50 (concentration causing 50% net cell killing),[1],6510 nM
same,IC (TGI),[1],2820 nM
same,CC50,[2],12300 nM
same,GI50,[2],992 nM
same,TGI PANC-1,[2],3.70E−06 Molar
same,GI50,[3],524 nM
same,CC50,[3],4430 nM
same,TGI MEL-28,[3],1.44E−06 Molar
same,GI50,[4],1080 nM
same,CC50,[4],12100 nM
same,IC (TGI),[4],3670 nM
same,GI50,[5]; HT-29,819 nM
same,CC50,"[5]; Homo sapiens, HT-29, HT-29",12300 nM
same,IC (TGI),"[5]; Homo sapiens, HT-29, HT-29, total growth inhibition (cytostatic effect), read-out: TGI HT-29",4540 nM
same,CC50,[6],10500 nM
same,GI50,[6],458 nM
same,TGI SK-BR-3,[6],2.14E−06 Molar
same,CC50,[7]; Homo sapiens,7910 nM
same,IC (TGI),[7]; Homo sapiens,3210 nM
same,GI50,[7],1310 nM
same,GI50,"[8]; Homo sapiens, LoVo",664 nM
same,CC50,"[8]; Homo sapiens, LoVo",12300 nM
same,IC (TGI),"[8]; Homo sapiens, LoVo",2370 nM
same,GI50,[9]; DU-145,505 nM
same,TGI DU-145,"[9]; DU-145, total growth inhibition (cytostatic effect)",1.41E−06 Molar
same,CC50,"[9]; Homo sapiens, DU-145, DU-145",7040 nM
same,GI50,[10],494 nM
same,IC (TGI),[10],846 nM
same,LC50 (concentration giving 50% net cell killing),[11],2930 nM
same,GI50,[12],558 nM
same,CC50,[12],8640 nM
same,IC (TGI),[12],1510 nM
same,GI50,"[13]; Homo sapiens, A549, A-549",1610 nM
same,CC50,"[13]; Homo sapiens, A549, A-549",9990 nM
same,IC (TGI),"[13]; Homo sapiens, A549, A-549, total growth inhibition (cytostatic effect), read-out: TGI A-549",4000 nM
same,CC50,[14]; Homo sapiens,12300 nM
same,IC (TGI),[14]; Homo sapiens,5140 nM
same,GI50,[14],2000 nM
same,GI50,[15],359 nM
same,CC50,[15],4270 nM
same,IC (TGI),[15],1270 nM
COc1cc2ccn3c(c(-c4ccc(OC(=O)[C@@H](N)C(C)C)c(OC)c4)c4c5cc(OC)c(OC(=O)[C@@H](N)C(C)C)cc5oc(=O)c43)c2cc1OC [Compound 19],GI50,[1],758 nM
same,LC50 (concentration causing 50% net cell killing),[1],6570 nM
same,IC (TGI),[1],2310 nM
same,CC50,[2],9500 nM
same,GI50,[2],245 nM
same,TGI PANC-1,[2],2.42E−06 Molar
same,GI50,[3],273 nM
same,CC50,[3],4990 nM
same,TGI MEL-28,[3],1.53E−06 Molar
same,GI50,[4],874 nM
same,CC50,[4],8030 nM
same,IC (TGI),[4],2720 nM
same,GI50,[5]; HT-29,109 nM
same,TGI HT-29,"[5]; HT-29, total growth inhibition (cytostatic effect)",2.10E−06 Molar
same,CC50,"[5]; Homo sapiens, HT-29, HT-29",7290 nM
same,CC50,[6],14000 nM
same,GI50,[6],165 nM
same,TGI SK-BR-3,[6],2.28E−06 Molar
same,GI50,[7]; Homo sapiens,406 nM
same,CC50,[7]; Homo sapiens,9340 nM
same,IC (TGI),[7]; Homo sapiens,2510 nM
same,GI50,"[8]; Homo sapiens, LoVo",722 nM
same,IC (TGI),"[8]; Homo sapiens, LoVo",2330 nM
same,CC50,[8]; LOVO,6600 nM
same,CC50,[9]; DU-145,6850 nM
same,GI50,"[9]; Homo sapiens, DU-145, DU-145",532 nM
same,IC (TGI),"[9]; Homo sapiens, DU-145, DU-145, total growth inhibition (cytostatic effect), read-out: TGI DU-145",2160 nM
same,GI50,[10],807 nM
same,IC (TGI),[10],2420 nM
same,LC50 (concentration giving 50% net cell killing),[11]; H-MEC-1 cells,7160 nM
same,GI50,[12],1840 nM
same,CC50,[12],11600 nM
same,IC (TGI),[12],4620 nM
same,CC50,[13]; A-549,6320 nM
same,TGI A-549,"[13]; A-549, total growth inhibition (cytostatic effect)",2.13E−06 Molar
same,GI50,"[13]; Homo sapiens, A549, A-549",605 nM
same,GI50,[14]; Homo sapiens,761 nM
same,CC50,[14]; Homo sapiens,11300 nM
same,IC (TGI),[14]; Homo sapiens,2540 nM
same,GI50,[15],94.1 nM
same,CC50,[15],5370 nM
same,IC (TGI),[15],1410 nM
